Each compound was assayed against NgDapB (4-hydroxy-tetrahydrodipicolinate reductase from Neisseria gonorrhoeae) (Neisseria gonorrhoeae, UniProt Q5F5Y7) (assay: isothermal titration calorimetry).
Assay type: binding

Sequence of NgDapB (4-hydroxy-tetrahydrodipicolinate reductase from Neisseria gonorrhoeae) (Q5F5Y7 whole entry): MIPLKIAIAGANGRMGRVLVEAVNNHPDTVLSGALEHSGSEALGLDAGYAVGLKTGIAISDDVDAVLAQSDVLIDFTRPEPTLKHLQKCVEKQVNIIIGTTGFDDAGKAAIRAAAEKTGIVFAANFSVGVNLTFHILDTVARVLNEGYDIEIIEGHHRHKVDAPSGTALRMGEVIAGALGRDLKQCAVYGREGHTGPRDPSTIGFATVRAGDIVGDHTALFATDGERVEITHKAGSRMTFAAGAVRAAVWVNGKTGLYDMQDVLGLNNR

Compared with `O=C(O)c1cccc(C(=O)O)n1` [2,6-PDC, 2,6-pyridine dicarboxylic acid], `NC(=O)C1=CN([C@@H]2O[C@H](COP(=O)(O)OP(=O)(O)OC[C@H]3O[C@@H](n4cnc5c(N)ncnc54)[C@H](O)[C@@H]3O)[C@@H](O)[C@H]2O)C=CC1` [NADH] is 8.5-fold lower in Kd: 21.2 ± 0.7 µM for the first, 2.5 ± 0.5 µM for the second. The second binds more tightly here.

Compound `NC(=O)C1=CN([C@@H]2O[C@H](COP(=O)(O)OP(=O)(O)OC[C@H]3O[C@@H](n4cnc5c(N)ncnc54)[C@H](OP(=O)(O)O)[C@@H]3O)[C@@H](O)[C@H]2O)C=CC1` [NADPH] has a Kd of 4.8 ± 0.6 µM.

Reference: paper PMC6192261 (Biochemical and biophysical research communications, 2018)
